≈ marks a conversion by molar mass, not a printed value.
Tests used:
[1] = test system: eosinophile infiltration in mice actively sensitized with ascaris; test: Test for eosinophile infiltration in mice actively sensitized with ascaris, administered two times a day; type: in vivo; conditions: orally 5 mg/kg two times a day; for inhibition in vivo at 5 mg/kg: Mus musculus, po, eosinophile count in BALF 48 hours after sensitization vs ascaris-sensitized group, read-out: suppression rate (%); for Average total eosinophile count (×10^5) of (ascaris-sensitized + substance under test) group: BALF 48 hours after sensitization
Method: Test for eosinophile infiltration in mice actively sensitized with ascaris (antigen to pig roundworm):
It has been reported that infiltration of eosinophilic cells is induced by active sensitization with ascaris {Int. Arch. Immuno., 108, 11-18 (1995)}. An evaluation of the compounds under test was performed according to the evaluation method described herein. The substance under test was orally administered in an amount of 5 mg/kg, two times a day. The total cell count and the eosinophile count in BALF of 48 hours after sensitization were calculated, and the effects were determined by comparing with the group not administered with the substance under test.

hα4 and β1 integrins = target: T1, hα4 and β1 integrins (Homo sapiens, UniProt P05556+P13612); test: In vitro inhibition of binding between CHO cells expressing hα4 and β1 integrins and Eu3+-hVCAM-1 D1D7-IgG; conditions: for Ki: CHO cells expressing hα4 and β1 integrins, Eu3+-hVCAM-1 D1D7-IgG ligand, without HSA; for IC50: in the presence of 3% human serum albumin (HSA final concentration 3%)
T1 construct: expressed in transfected cells; host or cells: CHO cells
T1 sequence (P13612 34-1032): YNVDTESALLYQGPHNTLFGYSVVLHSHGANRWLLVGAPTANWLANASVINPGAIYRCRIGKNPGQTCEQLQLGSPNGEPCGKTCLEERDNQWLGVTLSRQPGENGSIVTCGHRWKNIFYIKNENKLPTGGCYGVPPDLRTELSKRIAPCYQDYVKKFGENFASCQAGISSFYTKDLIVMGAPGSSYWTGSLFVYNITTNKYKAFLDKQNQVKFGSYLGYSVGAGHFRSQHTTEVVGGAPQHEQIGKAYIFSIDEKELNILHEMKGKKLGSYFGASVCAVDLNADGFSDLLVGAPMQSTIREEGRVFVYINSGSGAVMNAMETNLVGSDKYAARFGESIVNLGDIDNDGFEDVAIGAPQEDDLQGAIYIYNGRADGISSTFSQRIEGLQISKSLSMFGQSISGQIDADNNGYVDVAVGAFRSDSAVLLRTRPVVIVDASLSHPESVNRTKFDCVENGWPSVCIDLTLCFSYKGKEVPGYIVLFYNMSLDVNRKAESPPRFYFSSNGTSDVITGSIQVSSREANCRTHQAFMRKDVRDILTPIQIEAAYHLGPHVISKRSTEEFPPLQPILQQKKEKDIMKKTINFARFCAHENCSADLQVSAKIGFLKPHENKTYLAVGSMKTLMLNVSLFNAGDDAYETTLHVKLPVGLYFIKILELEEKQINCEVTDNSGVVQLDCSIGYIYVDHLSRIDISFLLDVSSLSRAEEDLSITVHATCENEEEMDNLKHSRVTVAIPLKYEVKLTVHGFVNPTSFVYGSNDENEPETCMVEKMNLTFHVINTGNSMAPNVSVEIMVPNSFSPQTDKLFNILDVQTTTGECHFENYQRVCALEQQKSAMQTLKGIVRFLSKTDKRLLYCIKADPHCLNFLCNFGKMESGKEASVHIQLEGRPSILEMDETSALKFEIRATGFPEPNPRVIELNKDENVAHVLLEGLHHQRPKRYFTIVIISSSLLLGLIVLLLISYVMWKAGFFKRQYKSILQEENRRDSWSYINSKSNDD
T1 sequence (P05556 21-798): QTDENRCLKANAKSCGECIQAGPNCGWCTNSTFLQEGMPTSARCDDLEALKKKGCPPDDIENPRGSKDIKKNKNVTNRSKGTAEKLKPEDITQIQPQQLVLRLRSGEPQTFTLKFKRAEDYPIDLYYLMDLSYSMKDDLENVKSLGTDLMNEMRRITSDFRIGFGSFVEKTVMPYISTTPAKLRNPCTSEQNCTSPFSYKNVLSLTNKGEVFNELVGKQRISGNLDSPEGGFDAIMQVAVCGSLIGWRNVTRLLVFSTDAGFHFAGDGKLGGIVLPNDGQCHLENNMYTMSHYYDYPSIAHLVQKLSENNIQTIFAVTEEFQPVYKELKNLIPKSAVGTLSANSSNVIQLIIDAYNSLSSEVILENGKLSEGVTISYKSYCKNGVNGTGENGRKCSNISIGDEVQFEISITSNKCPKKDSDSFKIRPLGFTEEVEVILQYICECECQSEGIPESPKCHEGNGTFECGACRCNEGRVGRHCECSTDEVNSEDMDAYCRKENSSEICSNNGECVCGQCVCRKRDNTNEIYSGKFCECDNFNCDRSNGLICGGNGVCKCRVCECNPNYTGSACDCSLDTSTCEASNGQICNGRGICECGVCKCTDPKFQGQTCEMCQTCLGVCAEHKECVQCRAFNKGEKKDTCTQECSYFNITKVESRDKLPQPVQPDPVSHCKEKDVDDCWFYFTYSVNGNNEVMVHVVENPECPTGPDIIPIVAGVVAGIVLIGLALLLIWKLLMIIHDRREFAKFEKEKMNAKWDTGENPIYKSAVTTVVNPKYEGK
Outline: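 Transfected CHO cells, cultured 2 days, were incubated with compound and Eu³⁺-hVCAM-1 D1D7-IgG (diluted to 2 nM) for 1 h at room temperature. Buffer was 25 mM HEPES pH 7.5 with 1 mM Ca²⁺, 1 mM Mg²⁺, 4 mM Mn²⁺ and 0.1% BSA, ±3% HSA final. Cells were washed at 4 °C and read by DELFIA time-resolved fluorescence; Ki was derived from IC50 using the Scatchard Kd.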

[2] = Test for pharmacokinetics and oral absorbability in monkeys; type: in vivo; conditions: orally 0.5 mg/kg, single agent; for AUC (ng · h/ml): total area under the plasma concentration versus time curve: LC/MS/MS
Method: The pharmacokinetic parameters in the case of orally administering (0.5 mg/kg, single agent) the substance under test to monkeys, were as follows.

[3] = Solubility test in first and second liquid of the Japanese Pharmacopoeia; conditions: Solubility
Method: The solubilities of the substance under test in the first liquid (JP1, pH=1.2) of the Japanese Pharmacopoeia and the second liquid (JP2, pH=6.8) of the Japanese Pharmacopoeia, were evaluated.

[4] = first liquid of the Japanese Pharmacopoeia (JP1), pH 1.2, simulated gastric fluid, First liquid of Japanese Pharmacopoeia (μg/mL), JP1, pH=1.2
[5] = second liquid of the Japanese Pharmacopoeia (JP2), pH 6.8, aqueous buffer, Second liquid of Japanese Pharmacopoeia (μg/mL), JP2, pH=6.8

| Structure (SMILES) | inhibition in vivo at 5 mg/kg [1] | Average total eosinophile count (×10^5) of (ascaris-sensitized + substance under test) group [1] | Ki (hα4 and β1 integrins) | IC50 (hα4 and β1 integrins) | Cltot (mL/min/kg): apparent plasma clearance [2] | AUC (ng · h/ml): total area under the plasma concentration versus time curve [2] | solubility [3, 4] | solubility [3, 5] |
| --- | --- | --- | --- | --- | --- | --- | --- | --- |
| O=C(Nc1ccc(CC(=O)N2C[C@@H](N3CCN(CC(F)(F)F)CC3)C[C@H]2CO[C@H]2CC[C@H](C(=O)O)CC2)cc1Cl)c1nccc2ccccc12 [Example 127, Trans-4-[1-[[3-chloro-4-[(isoquinolin-1-ylcarbonyl)amino]phenyl]acetyl]-(4S)-[4-(2,2,2-trifluoroethyl)piperazin-1-yl]-(2S)-pyrrolidinylmethoxy]cyclohexanecarboxylic acid] | 63% | 1.40 ×10^5 | 9.6 nM | 34 nM | – | – | – | – |
| O=C(Nc1cc(F)c(CC(=O)N2C[C@@H](N3CCCCC3)C[C@H]2CO[C@H]2CC[C@H](C(=O)O)CC2)cc1Cl)c1csc2ccccc12 [Example 94, Trans-4-[1-[[4-[(benzo[b]thiophen-3-ylcarbonyl)amino]-5-chloro-2-fluorophenyl]acetyl]-(4S)-(piperidin-1-yl)-(2S)-pyrrolidinylmethoxy]cyclohexanecarboxylic acid] | 59% | 1.24 ×10^5 | 0.93 nM | 2.9 nM | – | – | – | – |
| C[C@@H]1CN([C@H]2C[C@@H](CO[C@H]3CC[C@H](C(=O)O)CC3)N(C(=O)Cc3cc(Cl)c(NC(=O)c4cn(C)c5ccccc45)cc3Cl)C2)C[C@H](C)O1 [Example 80, Trans-4-[1-[[2,5-dichloro-4-[(1-methyl-1H-indol-3-ylcarbonyl)amino]phenyl]acetyl]-(4S)-(cis-2,6-dimethylmorpholin-4-yl)-(2S)-pyrrolidinylmethoxy]cyclohexanecarboxylic acid] | 51% | 1.86 ×10^5 | 6.5 nM | 20 nM | – | – | – | – |
| C[C@@H]1CN([C@H]2C[C@@H](CO[C@H]3CC[C@H](C(=O)O)CC3)N(C(=O)Cc3cc(Cl)c(NC(=O)c4coc5ccccc45)cc3Cl)C2)C[C@H](C)O1 [Example 83, Trans-4-[1-[[4-[(benzo[b]furan-3-ylcarbonyl)amino]-2,5-dichlorophenyl]acetyl]-(4S)-(cis-2,6-dimethylmorpholin-4-yl)-(2S)-pyrrolidinylmethoxy]cyclohexanecarboxylic acid] | – | – | 5.2 nM | 42 nM | 0.56 mL/min/kg | 15064 ng·h/mL | – | – |
| Cn1cc(C(=O)Nc2cc(F)c(CC(=O)N3C[C@@H](N4CCN(CCF)CC4)C[C@H]3CO[C@H]3CC[C@H](C(=O)O)CC3)cc2Cl)c2ccccc21 [Example 118, Trans-4-[1-[[5-chloro-2-fluoro-4-[(1-methyl-1H-indol-3-ylcarbonyl)amino]phenyl]acetyl]-(4S)-[4-(2-fluoroethyl)piperazin-1-yl]-(2S)-pyrrolidinylmethoxy]cyclohexanecarboxylic acid] | 67% | 1.41 ×10^5 | 3.9 nM | 13 nM | – | – | 1000 µg/mL (≈ 1430 µM) | 1000 µg/mL (≈ 1430 µM) |
| COCCC1CN([C@H]2C[C@@H](CO[C@H]3CC[C@H](C(=O)O)CC3)N(C(=O)Cc3cc(Cl)c(NC(=O)c4csc5ccccc45)cc3F)C2)C1 [Example 12, Trans-4-[1-[[4-[(benzo[b]thiophen-3-ylcarbonyl)amino]-5-chloro-2-fluorophenyl]acetyl]-(4S)-[3-(2-methoxyethyl)azetidin-1-yl]-(2S)-pyrrolidinylmethoxy]cyclohexanecarboxylic acid] | – | – | 1 nM | 8.6 nM | – | – | 1910 µg/mL (≈ 2780 µM) | 1690 µg/mL (≈ 2460 µM) |
| Cn1cc(C(=O)Nc2cc(F)c(CC(=O)N3C[C@@H](N4C[C@H]5COC[C@H]5C4)C[C@H]3CO[C@H]3CC[C@H](C(=O)O)CC3)cc2Cl)c2ccccc21 [Example 72] | 70% | 1.41 ×10^5 | 2.8 nM | 15 nM | – | – | – | – |
| CCO[C@H]1CCN([C@H]2C[C@@H](CO[C@H]3CC[C@H](C(=O)O)CC3)N(C(=O)Cc3cc(Cl)c(NC(=O)c4cn(C)c5ccccc45)cc3Cl)C2)C1 [Example 36, Trans-4-[1-[[2,5-dichloro-4-[(1-methyl-1H-indol-3-ylcarbonyl)amino]phenyl]acetyl]-(4S)-[(3S)-ethoxypyrrolidin-1-yl]-(2S)-pyrrolidinylmethoxy]cyclohexanecarboxylic acid] | – | – | 5.9 nM | 24 nM | – | – | 1940 µg/mL (≈ 2770 µM) | 1840 µg/mL (≈ 2630 µM) |
| Cn1cc(C(=O)Nc2cc(F)c(CC(=O)N3C[C@@H](N4CCN(CC(F)(F)F)CC4)C[C@H]3CO[C@H]3CC[C@H](C(=O)O)CC3)cc2Cl)c2ccccc21 [Example 124, Trans-4-[1-[[5-chloro-2-fluoro-4-[(1-methyl-1H-indol-3-ylcarbonyl)amino]phenyl]acetyl]-(4S)-[4-(2,2,2-trifluoroethyl)piperazin-1-yl]-(2S)-pyrrolidinylmethoxy]cyclohexanecarboxylic acid] | 63% | 1.72 ×10^5 | 4.9 nM | 17 nM | – | – | – | – |
| COC1CN([C@H]2C[C@@H](CO[C@H]3CC[C@H](C(=O)O)CC3)N(C(=O)Cc3cc(Cl)c(NC(=O)c4cn(C)c5ccccc45)cc3F)C2)C1 [Example 1] | – | – | 1.9 nM | 15 nM | – | – | > 2000 µg/mL | > 2000 µg/mL |
| Cn1cc(C(=O)Nc2cc(Cl)c(CC(=O)N3C[C@@H](N4CCN(C5CC5)CC4)C[C@H]3CO[C@H]3CC[C@H](C(=O)O)CC3)cc2Cl)c2ccccc21 [Example 139, Trans-4-[1-[[2,5-dichloro-4-[(1-methyl-1H-indol-3-ylcarbonyl)amino]phenyl]acetyl]-(4S)-(4-cyclopropylpiperazin-1-yl)-(2S)-pyrrolidinylmethoxy]cyclohexanecarboxylic acid] | – | – | 2.5 nM | 13 nM | 1.2 mL/min/kg | 7329 ng·h/mL | – | – |
| CCOC1CN([C@H]2C[C@@H](CO[C@H]3CC[C@H](C(=O)O)CC3)N(C(=O)Cc3cc(Cl)c(NC(=O)c4cn(C)c5ccccc45)cc3Cl)C2)C1 [Example 20, Trans-4-[1-[[2,5-dichloro-4-[(1-methyl-1H-indol-3-ylcarbonyl)amino]phenyl]acetyl]-(4S)-(3-ethoxyazetidin-1-yl)-(2S)-pyrrolidinylmethoxy]cyclohexanecarboxylic acid] | – | – | 3.9 nM | 40 nM | – | – | > 2000 µg/mL | 1920 µg/mL (≈ 2800 µM) |
| O=C(Nc1cc(F)c(CC(=O)N2C[C@@H](N3C[C@@H]4OCO[C@@H]4C3)C[C@H]2CO[C@H]2CC[C@H](C(=O)O)CC2)cc1Cl)c1coc2ccccc12 [Example 74, Trans-4-[1-[[4-[(benzo[b]furan-3-ylcarbonyl)amino]-5-chloro-2-fluorophenyl]acetyl]-(4S)-[(3a,6a-cis)-tetrahydro[1,3]dioxolo[4,5-c]pyrrol-5-yl]-(2S)-pyrrolidinylmethoxy]cyclohexanecarboxylic acid] | – | – | 1.5 nM | 8.8 nM | – | – | 1200 µg/mL (≈ 1790 µM) | 1300 µg/mL (≈ 1940 µM) |
| Cn1cc(C(=O)Nc2cc(Cl)c(CC(=O)N3C[C@@H](N4CCCOCC4)C[C@H]3CO[C@H]3CC[C@H](C(=O)O)CC3)cc2Cl)c2ccccc21 [Example 165, Trans-4-[1-[[2,5-dichloro-4-[(1-methyl-1H-indol-3-ylcarbonyl)amino]phenyl]acetyl]-(4S)-([1,4]-oxazepan-4-yl)-(2S)-pyrrolidinylmethoxy]cyclohexanecarboxylic acid] | – | – | 8.2 nM | 12 nM | – | – | > 2000 µg/mL | > 2000 µg/mL |
| CO[C@H]1CN([C@H]2C[C@@H](CO[C@H]3CC[C@H](C(=O)O)CC3)N(C(=O)Cc3cc(Cl)c(NC(=O)c4coc5ccccc45)cc3F)C2)C[C@@H]1OC [Example 53, Trans-4-[1-[[4-[(benzo[b]furan-3-ylcarbonyl)amino]-5-chloro-2-fluorophenyl]acetyl]-(4S)-[(3S,4S)-dimethoxypyrrolidin-1-yl]-(2S)-pyrrolidinylmethoxy]cyclohexanecarboxylic acid] | – | – | 2 nM | 11 nM | – | – | 1000 µg/mL (≈ 1460 µM) | 1000 µg/mL (≈ 1460 µM) |
| CO[C@H]1CN([C@H]2C[C@@H](CO[C@H]3CC[C@H](C(=O)O)CC3)N(C(=O)Cc3cc(Cl)c(NC(=O)c4csc5ccccc45)cc3F)C2)C[C@@H]1OC [Example 52, Trans-4-[1-[[4-[(benzo[b]thiophen-3-ylcarbonyl)amino]-5-chloro-2-fluorophenyl]acetyl]-(4S)-[(3S,4S)-dimethoxypyrrolidin-1-yl]-(2S)-pyrrolidinylmethoxy]cyclohexanecarboxylic acid] | – | – | 1.2 nM | 8.4 nM | – | – | 1000 µg/mL (≈ 1420 µM) | 1000 µg/mL (≈ 1420 µM) |

— patent US8129366B2, “VLA-4 inhibitory drug” (Daiichi Sankyo Company, Limited, priority 2005, dated 2012)
